Reference: PubChem BioAssay (NCI)
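Exposure lasted 48 hours, with cells grown in 96-well plates and compounds tested at five concentrations. GI50 is the concentration that inhibits growth by half. The concentration for full growth arrest is given as TGI.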

How the values were obtained:
Assay in all cases: NCI-60 cell line screen, 48 h
786-0 renal = tested on: 786-0 renal
A498 renal = tested on: A498 renal
A549 NSCLC = tested on: A549 NSCLC
ACHN renal = tested on: ACHN renal
BT-549 breast = tested on: BT-549 breast
CAKI-1 renal = tested on: CAKI-1 renal
CCRF-CEM leukemia = tested on: CCRF-CEM leukemia
COLO 205 colon = tested on: COLO 205 colon
DU-145 prostate = tested on: DU-145 prostate
EKVX NSCLC = tested on: EKVX NSCLC
HCC-2998 colon = tested on: HCC-2998 colon
HCT-116 colon = tested on: HCT-116 colon
HCT-15 colon = tested on: HCT-15 colon
HL-60(TB) leukemia = tested on: HL-60(TB) leukemia
HOP-62 NSCLC = tested on: HOP-62 NSCLC
HOP-92 NSCLC = tested on: HOP-92 NSCLC
HS 578T breast = tested on: HS 578T breast
HT29 colon = tested on: HT29 colon
IGROV1 ovarian = tested on: IGROV1 ovarian
K-562 leukemia = tested on: K-562 leukemia
KM12 colon = tested on: KM12 colon
LOX IMVI melanoma = tested on: LOX IMVI melanoma
M14 melanoma = tested on: M14 melanoma
MALME-3M melanoma = tested on: MALME-3M melanoma
MCF7 breast = tested on: MCF7 breast
MDA-MB-231 breast = tested on: MDA-MB-231 breast
MDA-MB-435 = tested on: MDA-MB-435
MOLT-4 leukemia = tested on: MOLT-4 leukemia
NCI-H226 lung = tested on: NCI-H226 lung

## COc1ccc(OC(=O)O[C@H]2[C@H](O[C@H]3[C@@H](O)COC(O[C@H]4C[C@H]5[C@@H]6CC=C7C[C@@H](O)CC[C@]7(C)[C@H]6CC[C@]5(C)[C@H]4[C@H](C)C(=O)CCC(C)C)[C@@H]3OC(C)=O)OC[C@@H](O)[C@@H]2O)cc1 (some centres not stated)
786-0 renal
  GI50: < 10 nM
  TGI: 3810 nM
A498 renal
  GI50: 11.6 nM
  TGI: 55.9 nM
A549 NSCLC
  GI50: 145 nM
  TGI: 21900 nM
ACHN renal
  GI50: 496 nM
  TGI: 18000 nM
BT-549 breast
  GI50: 18.5 nM
  TGI: 15200 nM
CAKI-1 renal
  GI50: 28.1 nM
  TGI: 1630 nM
CCRF-CEM leukemia
  GI50: < 10 nM
  TGI: 145 nM
COLO 205 colon
  GI50: 164 nM
  TGI: 1160 nM
DU-145 prostate
  GI50: 3530 nM
  TGI: 22700 nM
EKVX NSCLC
  GI50: 1640 nM
  TGI: 19600 nM
HCC-2998 colon
  GI50: 4910 nM
  TGI: 21400 nM
HCT-116 colon
  GI50: 62.1 nM
  TGI: 14100 nM
HCT-15 colon
  GI50: 1290 nM
  TGI: 11400 nM
HL-60(TB) leukemia
  GI50: 68.6 nM
  TGI: 18700 nM
HOP-62 NSCLC
  GI50: 56.9 nM
  TGI: 11400 nM
HOP-92 NSCLC
  GI50: 13 nM
  TGI: 2720 nM
HS 578T breast
  GI50: < 10 nM
  TGI: 185 nM
HT29 colon
  GI50: 541 nM
  TGI: 18100 nM
IGROV1 ovarian
  GI50: 335 nM
  TGI: 18200 nM
K-562 leukemia
  GI50: < 10 nM
  TGI: 10600 nM
KM12 colon
  GI50: 682 nM
  TGI: 19700 nM
LOX IMVI melanoma
  GI50: 26.5 nM
  TGI: 177 nM
M14 melanoma
  GI50: 40 nM
  TGI: 262 nM
MALME-3M melanoma
  GI50: 122 nM
  TGI: 3840 nM
MCF7 breast
  GI50: 78.2 nM
  TGI: 12800 nM
MDA-MB-231 breast
  GI50: 961 nM
  TGI: 18100 nM
MDA-MB-435
  GI50: 69.5 nM
  TGI: 759 nM
MOLT-4 leukemia
  GI50: 15.3 nM
NCI-H226 lung
  GI50: 580 nM
  TGI: 18700 nM
